How the values were obtained:
Neutrophil [1] = experiment: Antiinflammatory activity in human neutrophils assessed as inhibition of fMLF/cytochalasin B-induced superoxide anion generation at 10 uM preincubated for 5 mins followed by fMLF addition after priming with CB for 3 mins by spectrophotometric analysis relative to control; assay type: functional
Neutrophil [2] = experiment: Antiinflammatory activity in human neutrophils assessed as inhibition of fMLF/cytochalasin B-induced superoxide anion generation preincubated for 5 mins followed by fMLF addition after priming with CB for 3 mins by spectrophotometric analysis; assay type: functional, cell-based

Structure (SMILES) | inhibition at 10 µM (Neutrophil [1]) [%] | IC50 (Neutrophil [2]) [µM]
COc1cc2c(cc1O)C[C@H]1c3c(cc(OC)c(OC)c3-2)CCN1C | > 50 | 8.36
C=C1O[C@@H]2[C@@H](OC(C)=O)C3=C(C)C(=O)OC3=C[C@@]2(C)[C@@H]2C[C@H]12 | > 50 | 7.45
O=c1c(-c2ccc(O)cc2)coc2cc(O)cc(O)c12 [GENISTEIN] | – | 1.11
COc1cc2c(cc1O)C[C@H]1c3c(cc(OC)c(O)c3-2)CCN1C [ISOBOLDINE] | > 50 | 5.81
